Source: US20230310505A1, “COMPOSITION FOR PREVENTING HEARING LOSS CONTAINING MESENCHYMAL STEM CELLS OR EXOSOMES DERIVED THEREFROM AS ACTIVE INGREDIENT” (UNIVERSITY INDUSTRY FOUNDATION, YONSEI UNIVERSITY WONJU …, priority 2020, published 2023)

Test system: outer hair cells (OHC) and inner hair cells (IHC) of cochlear explants
Assay: Ototoxic hearing loss induction: cisplatin treatment of cochlear explants, hair cell viability by immunofluorescence
Type: cell-based, ICR mice
Details: cisplatin for 24 hours
Experimental: It is also known that damage to outer hair cells (OHC) and inner hair cells (IHC) of the cochlea leads to hearing loss.
After completion of the treatment, the cochlear explants were fixed with PBS containing 4% formalin for 15 minutes and washed with PBS three times. Next, after incubation with PBS containing 0.1% Triton X-100 for 10 minutes, blocking was performed with PBS containing 4% BSA for 30 minutes. Thereafter, incubation was performed for 1 hour with a rabbit anti-mouse myosin 7a primary antibody (1:400, abcam). After washing with PBS three times, incubation was performed for 1 hour with goat anti-rabbit IgG (H+L) Alexa Fluor 488 antibody (1:500, abcam) with Phalloidine Alexa Fluor 647 (1:1000, abcam). After washing with PBS, the coverslip was transferred to a slide and a drop of Fluoroshield with DAPI (Sigma, USA) was gently applied to the coverslip. The coverslip was sealed with clear nail polish and observed under a fluorescence microscope (FIG. 1B), and the number of OHCs and IHCs was measured to calculate the cell viability (FIG. 1C).

Q: With `N.N.[Cl][Pt][Cl]` [cisplatin] as the compound, how does the EC50 (apical turn) read?
A: 100 µM

Q: What about the EC50 (middle turn and basal turn) of the same compound?
A: 80 µM
